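All cell lines were grown in 96-well plates and treated with compound for 48 hours. Here, GI50 denotes the concentration required for 50% inhibition of growth.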 The source made the active and inactive calls. Cut-off read from the data, not from the text of the source: active = GI50 up to about 1.1 µM and inactive = higher.
How the values were obtained:
Assay in all cases: NCI anticancer screen, dose series, 48 h
MDA-N = tested on: MDA-N
HCT-15 = tested on: HCT-15
HCT-116 = tested on: HCT-116
NCI-H226 = tested on: NCI-H226
HOP-62 = tested on: HOP-62
RXF 393 = tested on: RXF 393
OVCAR-5 = tested on: OVCAR-5
SW-620 = tested on: SW-620
HT-29 = tested on: HT-29
MDA-MB-231 = tested on: MDA-MB-231
UO-31 = tested on: UO-31
SR = tested on: SR
UACC-62 = tested on: UACC-62
M14 = tested on: M14
SK-OV-3 = tested on: SK-OV-3
COLO 205 = tested on: COLO 205
786-0 = tested on: 786-0
SNB-75 = tested on: SNB-75
MDA-MB-435 = tested on: MDA-MB-435
BT-549 = tested on: BT-549

| Compound | GI50 (MDA-N) | GI50 (HCT-15) [µM] | GI50 (HCT-116) | GI50 (NCI-H226) | GI50 (HOP-62) | GI50 (RXF 393) | GI50 (OVCAR-5) | GI50 (SW-620) | GI50 (HT-29) | GI50 (MDA-MB-231) | GI50 (UO-31) | GI50 (SR) | GI50 (UACC-62) | GI50 (M14) | GI50 (SK-OV-3) | GI50 (COLO 205) | GI50 (786-0) | GI50 (SNB-75) | GI50 (MDA-MB-435) | GI50 (BT-549) |
| --- | --- | --- | --- | --- | --- | --- | --- | --- | --- | --- | --- | --- | --- | --- | --- | --- | --- | --- | --- | --- |
| COc1ccc(Cc2cc(OC)c(OC)c(OC)c2)cc1O | < 0.01 µM (active) | 0.019 | 0.064 µM (active) | 36.7 µM (inactive) | 0.109 µM (active) | 0.181 µM (active) | 68.1 µM (inactive) | < 0.01 µM (active) | 14.3 µM (inactive) | 0.0122 µM (active) | 1.03 µM (active) | 0.0194 µM (active) | 0.457 µM (active) | 0.0255 µM (active) | 0.274 µM (active) | > 40.2 µM (inactive) | 0.116 µM (active) | < 0.01 µM (active) | < 0.01 µM (active) | < 0.01 µM (active) |
| Cc1nc(N)nc2ccccc12 | > 100 µM (inactive) | > 100 | > 100 µM (inactive) | 0.172 µM (active) | > 100 µM (inactive) | > 100 µM (inactive) | > 100 µM (inactive) | > 100 µM (inactive) | > 100 µM (inactive) | > 100 µM (inactive) | > 100 µM (inactive) | > 100 µM (inactive) | > 100 µM (inactive) | > 100 µM (inactive) | > 100 µM (inactive) | – | > 100 µM (inactive) | 60 µM (inactive) | > 100 µM (inactive) | > 100 µM (inactive) |
| NS(=O)(=O)c1ccc(NCc2cnc3ccccc3c2)cc1 | > 100 µM (inactive) | > 100 | > 100 µM (inactive) | > 100 µM (inactive) | > 100 µM (inactive) | > 100 µM (inactive) | > 100 µM (inactive) | > 100 µM (inactive) | > 100 µM (inactive) | > 100 µM (inactive) | > 100 µM (inactive) | > 100 µM (inactive) | > 100 µM (inactive) | > 100 µM (inactive) | > 100 µM (inactive) | > 100 µM (inactive) | 39.4 µM (inactive) | > 100 µM (inactive) | > 100 µM (inactive) | 62.8 µM (inactive) |
| Nc1ncnc2nn(C3OC(CO)C(O)C3O)nc12 (stereo not drawn) | 10.3 µM (inactive) | 5.62 | 7.87 µM (inactive) | 5.36 µM (inactive) | 14 µM (inactive) | 2 µM (inactive) | 9.06 µM (inactive) | 6.52 µM (inactive) | 8.81 µM (inactive) | 3.75 µM (inactive) | 6.44 µM (inactive) | 2.99 µM (inactive) | 25.4 µM (inactive) | 6.82 µM (inactive) | 2.67 µM (inactive) | 5.06 µM (inactive) | 10.4 µM (inactive) | 9.77 µM (inactive) | 9.1 µM (inactive) | 24.2 µM (inactive) |
| CNC(=O)CNC(=O)N(C[C@@H]1CCCN1C(=O)[C@H](CC(C)C)NC(=O)OC(C)(C)C)C(C)C | > 100 µM (inactive) | > 100 | > 100 µM (inactive) | > 100 µM (inactive) | > 100 µM (inactive) | > 100 µM (inactive) | > 100 µM (inactive) | > 100 µM (inactive) | > 100 µM (inactive) | > 100 µM (inactive) | > 100 µM (inactive) | > 100 µM (inactive) | > 100 µM (inactive) | > 100 µM (inactive) | > 100 µM (inactive) | > 100 µM (inactive) | > 100 µM (inactive) | > 100 µM (inactive) | > 100 µM (inactive) | > 100 µM (inactive) |
| CC1(c2ccc(Cl)cc2)C=C(c2ccc(Cl)cc2)C(C#N)=C(C(C#N)C#N)N1.CNC (stereo not drawn) | 17.3 µM (inactive) | 15.1 | 14 µM (inactive) | 19.8 µM (inactive) | 16.5 µM (inactive) | 18.7 µM (inactive) | 18.1 µM (inactive) | 12.7 µM (inactive) | 16.6 µM (inactive) | 24.9 µM (inactive) | 16.4 µM (inactive) | 15.7 µM (inactive) | 14.1 µM (inactive) | 18.6 µM (inactive) | 17.1 µM (inactive) | 14.5 µM (inactive) | 13.8 µM (inactive) | 18.8 µM (inactive) | 17.5 µM (inactive) | 21.2 µM (inactive) |
| CCOC(=O)c1oc2cc3c(c4c2c1-c1ccccc1N4C)C=CC(C)(C)O3 | > 79.8 µM (inactive) | 50.4 | 14.2 µM (inactive) | 16.8 µM (inactive) | 6.84 µM (inactive) | 7.31 µM (inactive) | 29.9 µM (inactive) | 59.8 µM (inactive) | 9.51 µM (inactive) | 10.4 µM (inactive) | 19.5 µM (inactive) | 0.56 µM (active) | 11.9 µM (inactive) | 40.2 µM (inactive) | 13.4 µM (inactive) | > 65.3 µM (inactive) | 7.06 µM (inactive) | 12.6 µM (inactive) | 52.1 µM (inactive) | 23.6 µM (inactive) |
| [N-]=[N+]=NC1C(O)C(CO)OC1n1ccc(=O)[nH]c1=O (stereo not drawn) | > 875 µM (inactive) | > 875 | > 875 µM (inactive) | > 875 µM (inactive) | > 875 µM (inactive) | 0.0875 µM (active) | > 875 µM (inactive) | > 875 µM (inactive) | > 875 µM (inactive) | > 875 µM (inactive) | > 875 µM (inactive) | > 875 µM (inactive) | > 875 µM (inactive) | > 875 µM (inactive) | > 875 µM (inactive) | > 875 µM (inactive) | > 875 µM (inactive) | > 875 µM (inactive) | > 875 µM (inactive) | > 875 µM (inactive) |
| CCCCCCCCCCCCN1[C@H]2CCC[C@H]2C(O)[C@@H]2CCC[C@@H]21 (stereo partly drawn) | > 100 µM (inactive) | 56.4 | 53.8 µM (inactive) | 96.6 µM (inactive) | > 100 µM (inactive) | > 100 µM (inactive) | > 100 µM (inactive) | > 100 µM (inactive) | > 100 µM (inactive) | > 100 µM (inactive) | – | 41 µM (inactive) | > 100 µM (inactive) | > 100 µM (inactive) | > 100 µM (inactive) | > 100 µM (inactive) | > 100 µM (inactive) | > 100 µM (inactive) | > 100 µM (inactive) | 42.3 µM (inactive) |
| N#CCCN(CCC#N)c1ccc(/C=C2\N=C(c3ccccc3)N(c3ccc(F)cc3)C2=O)cc1 | > 100 µM (inactive) | > 100 | > 100 µM (inactive) | > 100 µM (inactive) | > 100 µM (inactive) | > 100 µM (inactive) | > 100 µM (inactive) | > 100 µM (inactive) | > 100 µM (inactive) | > 100 µM (inactive) | > 100 µM (inactive) | > 100 µM (inactive) | > 100 µM (inactive) | > 100 µM (inactive) | > 100 µM (inactive) | > 100 µM (inactive) | > 100 µM (inactive) | > 100 µM (inactive) | > 100 µM (inactive) | > 100 µM (inactive) |
| Oc1c(C2=NNC(c3ccc(Cl)cc3Cl)C2)ccc2ccccc12 (stereo not drawn) | 19.5 µM (inactive) | 34.9 | 33.6 µM (inactive) | 50.4 µM (inactive) | 38.7 µM (inactive) | 37.9 µM (inactive) | 42.7 µM (inactive) | 35.9 µM (inactive) | 31.4 µM (inactive) | 46.5 µM (inactive) | 54.3 µM (inactive) | 8.38 µM (inactive) | 40.6 µM (inactive) | 26.5 µM (inactive) | 46.3 µM (inactive) | 32 µM (inactive) | 31.5 µM (inactive) | 39.9 µM (inactive) | 22.8 µM (inactive) | 69.2 µM (inactive) |
| O=c1[nH]nc(Cc2ccc(Cl)cc2)n1/N=C/c1cccs1 | > 100 µM (inactive) | > 100 | 30.8 µM (inactive) | 43.5 µM (inactive) | 22.1 µM (inactive) | 15.5 µM (inactive) | 73.3 µM (inactive) | > 100 µM (inactive) | 14 µM (inactive) | 21.3 µM (inactive) | 46.2 µM (inactive) | > 100 µM (inactive) | > 100 µM (inactive) | > 100 µM (inactive) | 43.9 µM (inactive) | > 100 µM (inactive) | 26.6 µM (inactive) | 19.1 µM (inactive) | > 100 µM (inactive) | 24.9 µM (inactive) |
| COc1ccc2nc3cc(Cl)ccc3c(NCCNCCCNC(=O)c3cc(-c4ccccc4)nc4ccccc34)c2c1 | 28.6 µM (inactive) | > 100 | > 100 µM (inactive) | > 100 µM (inactive) | > 100 µM (inactive) | > 100 µM (inactive) | > 100 µM (inactive) | > 100 µM (inactive) | 22.6 µM (inactive) | > 100 µM (inactive) | > 100 µM (inactive) | 38.3 µM (inactive) | > 100 µM (inactive) | > 100 µM (inactive) | > 100 µM (inactive) | > 100 µM (inactive) | > 100 µM (inactive) | > 100 µM (inactive) | 30.1 µM (inactive) | > 100 µM (inactive) |
| COC(=O)[C@@]12C(=O)C=CC(=O)[C@@H]1C1C(=CC2COC(C)=O)O[C@@H]2OC3(CCCCC3)O[C@H]12 (stereo partly drawn) | 12.6 µM (inactive) | 5.66 | 5.69 µM (inactive) | 17.2 µM (inactive) | 19.8 µM (inactive) | 11.1 µM (inactive) | 16.7 µM (inactive) | 3.75 µM (inactive) | 6.01 µM (inactive) | 19.5 µM (inactive) | 14.9 µM (inactive) | 3.05 µM (inactive) | 12.9 µM (inactive) | 15.6 µM (inactive) | 16.1 µM (inactive) | 5.77 µM (inactive) | 7.1 µM (inactive) | 13 µM (inactive) | 16.2 µM (inactive) | 13.2 µM (inactive) |

Reference: ChEMBL document CHEMBL1201862, “PubChem BioAssay data set” (2004)
